Reference: US10869931B2, “Polyethylene glycol-modified angiogenesis inhibitor HM-1 and application thereof” (NANJING ANJI BIOLOGICAL TECHNOLOGY CO.,LTD, priority 2016, dated 2020)
Where no end group is shown, it is not given here.

Experiments:
[1] = tested on: Head and neck cancer tumor cells; test: MTT proliferation inhibition, head and neck cancer cells; type: cell-based, human; design: concentration or dose not given beside the values; details: 48 h
How it was run: (§1)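 Tumour cells plated at 2×10^4 cells/mL, attached overnight, then exposed to dilutions of mPEG-HM-1 for 48 h at 37 °C, 5% CO2. MTT added 4 h, formazan dissolved in DMSO, absorbance 570/630 nm; growth inhibition = 1 − treated/untreated, three independent repeats, mean±SD.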

[2] = tested on: Esophageal cancer tumor cells; test: MTT proliferation inhibition, esophageal cancer cells; type: cell-based, human; design: concentration or dose not given beside the values; details: 48 h
How it was run: as §1

[3] = tested on: Lung cancer tumor cells; test: MTT proliferation inhibition, lung cancer cells; type: cell-based, human; design: concentration or dose not given beside the values; details: 48 h
How it was run: as §1

[4] = tested on: Liver cancer tumor cells; test: MTT proliferation inhibition, liver cancer cells; type: cell-based, human; design: concentration or dose not given beside the values; details: 48 h
How it was run: as §1

[5] = tested on: Breast cancer tumor cells; test: MTT proliferation inhibition, breast cancer cells; type: cell-based, human; design: concentration or dose not given beside the values; details: 48 h
How it was run: as §1

[6] = tested on: Kidney cancer tumor cells; test: MTT proliferation inhibition, kidney cancer cells; type: cell-based, human; design: concentration or dose not given beside the values; details: 48 h
How it was run: as §1

[7] = tested on: Cervical cancer tumor cells; test: MTT proliferation inhibition, cervical cancer cells; type: cell-based, human; design: concentration or dose not given beside the values; details: 48 h
How it was run: as §1

[8] = tested on: Uterine cancer tumor cells; test: MTT proliferation inhibition, uterine cancer cells; type: cell-based, human; design: concentration or dose not given beside the values; details: 48 h
How it was run: as §1

[9] = tested on: Prostate cancer tumor cells; test: MTT proliferation inhibition, prostate cancer cells; type: cell-based, human; design: concentration or dose not given beside the values; details: 48 h
How it was run: as §1

[10] = tested on: Hemangioma tumor cells; test: MTT proliferation inhibition, hemangioma cells; type: cell-based, human; design: concentration or dose not given beside the values; details: 48 h
How it was run: as §1

[11] = tested on: IL-1β production by mouse peritoneal macrophages; test: IL-1β production by mouse peritoneal macrophages (ELISA); type: cell-based; details: 48 h
How it was run: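 Starch-elicited mouse peritoneal macrophages (2×10^6 cells/mL), adhered 3 h, treated with low, medium and high concentrations of mPEG-HM-1 for 48 h; dexamethasone as positive control. Supernatant IL-1β quantified by sandwich ELISA at OD450.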

[12] = tested on: neovascularization in rat model of premature retinopathy; test: Fluctuating-oxygen rat model of premature retinopathy (endothelial nuclei count); type: in vivo; details: day 14
Experimental: A fluctuating oxygen-induced animal model was used to randomly divide the newborn rats that were naturally delivered on the same day (within 12 hours) into three groups: the oxygenated model group, the oxygenated treatment group, and the normal control group. The oxygenated model group was subdivided into three subgroup models and along with the oxygenated treatment group was placed in a semi-closed oxygen chamber made of plexiglass. The chamber was connected to medical oxygen, and the oxygen analyzer was adjusted to a concentration of 80%±2%. After 24 hours, Nitrogen gas was introduced into the oxygen chamber, and the oxygen concentration was adjusted to 10%±2% and maintained for 24 h. This process was repeated, so that the oxygen concentration in the oxygen chamber is switched between 80% and 10% every 24 hours, and then transferred to the air for 7 days. The oxygen concentration was monitored 8 times a day, and the ambient temperature in the control cabin was 23° C.±2° C. Bedding change, adding food, changing water and replacing mother rats were performed once a day. The normal control group was placed in an animal facility environment. […] The oxygenated therapeutic components were divided into four subgroups, and on the 7th day of modeling, mPEG-SC-HM-1, mPEG2-NHS-HM-1, mPEG-ALD10k-HM-1, and mPEG-bALD-HM-1 were respectively administered by intravitreal injection. Only normal saline was administered to the oxygen model group and the control group. The administrations continued for 1 week. […] After immersion in wax, serial section at thickness of 4 μm was performed, wherein the sections were kept away from the optic disc. The sections are parallel to the sagittal plane of the cornea to the optic disc. Ten sections per eyeball were randomly selected from each eyeball to be stained with hematoxylin and eosin, and the number of vascular endothelial cells that broke through the retinal inner membrane was counted (only the vascular endothelial nucleus closely related to the inner retinal membrane was counted), and the average numbers of endothelial cells per eyeball per slice was counted.

[13] = in vivo
[14] = 100 μg intravitreal for 1 week from day 7, vascular endothelial nuclei per slice
[15] = 200 μg intravitreal for 1 week from day 7, vascular endothelial nuclei per slice

Substance | rate of growth inhibition [1] [%] | rate of growth inhibition [2] [%] | rate of growth inhibition [3] [%] | rate of growth inhibition [4] [%] | rate of growth inhibition [5] [%] | rate of growth inhibition [6] [%] | rate of growth inhibition [7] [%] | rate of growth inhibition [8] [%] | rate of growth inhibition [9] [%] | rate of growth inhibition [10] [%] | IL-1β ([11]; 20 μg/mL) [pg/mL] | Inhibition Rate of IL-1β production ([11]; 20 μg/mL) [%] | IL-1β ([11]; 40 μg/mL) [pg/mL] | Inhibition Rate of IL-1β production ([11]; 40 μg/mL) [%] | IL-1β ([11]; 80 μg/mL) [pg/mL] | Inhibition Rate of IL-1β production ([11]; 80 μg/mL) [%] | AUC0-∞ [13] [mg/L/h] | CL [13] [L/h/kg] | MRT0-∞ [13] [h] | T1/2β (half-life) [13] [h] | also measured
mPEG-SC20k-Arg-Gly-Ala-Asp-Arg-Ala-Gly-Gly-Gly-Gly-Arg-Gly-Asp ({mPEG‑SC 20 kDa}-RGADRAGGGGRGD) [mPEG-SC20k-HM-1] | 49.26 ± 10.32 | 55.51 ± 16.22 | 53.87 ± 15.66 | 61.09 ± 14.09 | 52.18 ± 18.28 | 67.29 ± 18.16 | 62.93 ± 20.09 | 76.93 ± 23.14 | 49.35 ± 10.04 | 55.63 ± 18.30 | 761.42 ± 16.96 | 18.74 | 653.20 ± 18.59 | 30.29 | 512.27 ± 10.50 | 45.33 | 4310.23 ± 12.98 | 0.0135 ± 0.0093 | 17.64 ± 12.67 | 21.46 ± 0.24 | Cell nuclei count [12, 14]: 7.372 ± 2.078
mPEG-SC40k-Arg-Gly-Ala-Asp-Arg-Ala-Gly-Gly-Gly-Gly-Arg-Gly-Asp ({mPEG‑SC 40 kDa}-RGADRAGGGGRGD) [mPEG-SC40k-HM-1] | 43.22 ± 10.25 | 52.12 ± 12.35 | 51.32 ± 16.29 | 60.37 ± 14.74 | 50.12 ± 18.09 | 62.23 ± 16.51 | 61.52 ± 15.11 | 70.27 ± 21.37 | 45.93 ± 12.72 | 53.36 ± 15.09 |  |  | 774.07 ± 15.32 | 17.39 | 670.72 ± 16.71 | 28.42 | 4365.64 ± 11.06 | 0.0068 ± 0.0047 | 16.36 ± 10.28 | 42.19 ± 0.32 | IL-1β ([11]; 160 μg/mL): 553.22 ± 10.82 pg/mL; Inhibition Rate of IL-1β production ([11]; 160 μg/mL): 40.96%; Cell nuclei count [12, 15]: 8.089 ± 2.935
mPEG-bALD5k-Arg-Gly-Ala-Asp-Arg-Ala-Gly-Gly-Gly-Gly-Arg-Gly-Asp ({mPEG‑bALD 5 kDa}-RGADRAGGGGRGD) [mPEG-bALD5k-HM-1] | 39.92 ± 11.33 | 45.03 ± 11.46 | 47.56 ± 12.22 | 55.63 ± 10.27 | 50.02 ± 10.47 | 57.63 ± 12.09 | 64.52 ± 16.88 | 65.46 ± 18.52 | 39.27 ± 12.50 | 40.29 ± 12.16 | 533.11 ± 10.87 | 42.19 |  |  |  |  | 4782.29 ± 11.37 | 0.0498 ± 0.0097 | 8.46 ± 6.95 | 9.35 ± 0.12 | IL-1β ([11]; 5 μg/mL): 729.25 ± 18.34 pg/mL; Inhibition Rate of IL-1β production ([11]; 5 μg/mL): 20.92%; IL-1β ([11]; 10 μg/mL): 659.63 ± 16.52 pg/mL; Inhibition Rate of IL-1β production ([11]; 10 μg/mL): 28.47%; Cell nuclei count ([12]; 25 μg intravitreal for 1 week from day 7, vascular endothelial nuclei breaking through inner retinal membrane per slice): 8.852 ± 2.933
mPEG-bALD10k-Arg-Gly-Ala-Asp-Arg-Ala-Gly-Gly-Gly-Gly-Arg-Gly-Asp ({mPEG‑bALD 10 kDa}-RGADRAGGGGRGD) [mPEG-bALD10k-HM-1] | 49.01 ± 12.14 | 64.92 ± 12.17 | 66.72 ± 14.42 | 68.59 ± 20.19 | 68.15 ± 15.87 | 70.19 ± 18.11 | 80.08 ± 18.34 | 79.79 ± 20.45 | 50.02 ± 10.65 | 55.28 ± 12.30 | 633.90 ± 14.73 | 31.26 | 460.53 ± 10.42 |  |  |  | 5108.42 ± 9.98 | 0.0250 ± 0.0105 | 11.97 ± 8.86 | 16.83 ± 0.13 | IL-1β ([11]; 10 μg/mL): 720.77 ± 16.65 pg/mL; Inhibition Rate of IL-1β production ([11]; 10 μg/mL): 21.84%; Cell nuclei count ([12]; 50 μg intravitreal for 1 week from day 7, vascular endothelial nuclei per slice): 7.627 ± 1.892
mPEG-bALD20k-Arg-Gly-Ala-Asp-Arg-Ala-Gly-Gly-Gly-Gly-Arg-Gly-Asp ({mPEG‑bALD 20 kDa}-RGADRAGGGGRGD) [mPEG-bALD20k-HM-1] | 45.13 ± 12.38 | 60.56 ± 14.72 | 65.31 ± 15.54 | 62.49 ± 16.14 | 60.97 ± 16.29 | 66.81 ± 19.48 | 78.57 ± 20.11 | 75.97 ± 22.67 | 46.90 ± 11.54 | 50.31 ± 14.00 | 738.66 ± 12.81 | 19.90 | 640.26 ± 14.28 | 30.57 | 487.37 ± 12.06 | 47.15 | 5872.56 ± 8.72 | 0.0127 ± 0.0093 | 18.32 ± 2.99 | 22.94 ± 0.24 | Cell nuclei count [12, 14]: 7.158 ± 1.724
mPEG-bALD40k-Arg-Gly-Ala-Asp-Arg-Ala-Gly-Gly-Gly-Gly-Arg-Gly-Asp ({mPEG‑bALD 40 kDa}-RGADRAGGGGRGD) [mPEG-bALD40k-HM-1] | 40.09 ± 12.02 | 57.19 ± 12.07 | 56.47 ± 14.15 | 58.72 ± 10.80 | 62.45 ± 19.04 | 60.06 ± 18.88 | 70.34 ± 19.04 | 70.51 ± 20.22 | 40.82 ± 11.75 | 48.69 ± 12.72 |  |  | 740.78 ± 16.79 | 19.67 | 648.10 ± 14.55 | 29.72 | 5065.72 ± 9.56 | 0.0066 ± 0.0066 | 16.75 ± 3.29 | 43.88 ± 0.20 | IL-1β ([11]; 160 μg/mL): 518.91 ± 12.90 pg/mL; Inhibition Rate of IL-1β production ([11]; 160 μg/mL): 43.73%; Cell nuclei count [12, 15]: 8.539 ± 2.218
